From paper PMC11345829, “Discovery of Potent Isoquinolinequinone N-Oxides to Overcome Cancer Multidrug Resistance” (Journal of Medicinal Chemistry, 2024)
Where two headings read alike, the source gives them in different places.

What was measured:
NCI-H460 [1] = test: NCI60 five-dose GI50 (NCI data); type: cell-based; conditions: Homo sapiens, NCI data provided for comparison, read-out: NSCLC NCI-H460 GI50 (NCI)
Description: (§1) The concentration−response curve generated enables the determination of three criteria, GI50 (drug concentration at which 50% of cell growth is inhibited), total growth inhibition (TGI) and LC50 (drug concentration at which 50% of tumor cells are killed) which can be used to compare effectiveness against any compound tested in the screen since its inception.
(§2) S2.1 NCI Screening Assay Experimental details
(§3) NCI Screening Assay Experimental: Cancer cell growth assays (NCI60 screening) 5,6 One-dose study: Tested compounds were initially solubilised in DMSO, diluted into RPMI 1640 and 5% fetal bovine serum/L-glutamine, and added to 96-well plates containing cell lines previously cultured for 24 h. After 48 h incubation, the media were removed, and the cells were fixed and stained with sulforhodamine B to determine overall percent growth/ total protein content. Unbound dye was removed with five washes of 1% acetic acid, and the plates were allowed to air dry. The dye was then resolubilised in Tris buffer, and the colorimetric absorbance was measured (515 nm). Growth inhibition was measured relative to the response generated from proliferating cells cultured under identical conditions for 48 h. Data from one-dose experiments pertains to the percentage growth at […]
(§4) Five-dose study: Serial 5 × 10-fold dilution from an initial DMSO stock solution was performed, prior to incubation at each individual concentration (10 nM, 100 nM, 1 μM, 10 μM and 100 μM). Using seven absorbance measurements (time zero (Tz), control growth (C), and test growth in the presence of drug at the five concentration levels (Ti)), the percentage growth was calculated at each of the drug concentrations levels. Percentage growth inhibition was calculated as: [(Ti − Tz)/(C − Tz)] × 100 for concentrations for which Ti ≥ Tz, [(Ti − Tz)/Tz] × 100 for concentrations for which Ti < Tz. Three dose response parameters were calculated for each experimental agent. […]
(§5) was calculated from [(Ti − Tz)/(C − Tz)] × 100 = 50, which is the drug concentration resulting in a 50% reduction in the net protein increase (as measured by sulforhodamine B staining) in control cells during the drug incubation. The drug concentration resulting in total growth inhibition (TGI) was calculated from Ti = Tz. The LC50 (concentration of drug resulting in a 50% reduction in the measured protein at the end of the drug treatment as compared to that at the beginning) indicating a net loss of cells following treatment was calculated from [(Ti − Tz)/Tz] × 100 = −50. Values were calculated for each of these three parameters if the level of activity was reached; however, if the effect was not reached or was exceeded, the value for that parameter was expressed as greater or less than the maximum or minimum concentration tested.

[2] = tested on: NCI60 tumor cell line panel; test: NCI60 five-dose screen, mean over panel; type: cell-based, human
Description: as §1, §2, §3, §4, §5

DLD1 = test: SRB cell growth inhibition assay; type: cell-based; conditions: Homo sapiens, DLD-1, 48 h, colorectal cancer sensitive, mean ± SEM
Description: (§6) Taking into consideration the promising results of preliminary NCI screening, nine compounds (1, 2, 3, 4, 5, 20, 23, 24, 25) were selected for further screening in two counterpart pairs of sensitive and MDR cell lines. […] Two distinct pairs of counterpart drug-sensitive and MDR human tumor cell lines were used, namely the non-small lung cancer (NSCLC) NCI-H460 (same cell line as in the NCI screen) and its MDR counterpart cell line NCI-H460/R and the colorectal cancer DLD1 and its MDR counterpart cell line DLD1-TxR (Table 3). The screening was performed using the SRB assay, and the GI50 for each compound was determined by interpolation on the attained concentration−response curves and compared with NCI60 screening data (SI, Figures S62−S63; Table S21).
(§7) Two pairs of drug-sensitive and multidrug-resistant (MDR) cell lines from human nonsmall cell lung cancer (NSCLC), NCI-H460 and NCI-H460/R, and colorectal cancer, DLD1 and DLD1-TxR, kindly provided by Dr M. Pešić (Belgrade, Serbia), were used to evaluate the growth inhibition potential of the compounds 1, 2, 3, 4, 5, 20, 23, 24, an 25.[76],[77] Additionally, growth inhibition assays were performed with compound 25 on two other NSCLC cell lines, A549 and NCI-H322, obtained from the American Type Culture Collection (ATCC) and the European Collection of Authenticated Cell Cultures, respectively. The A549 cell line was maintained in Dulbecco’s Modified Eagle Medium (DMEM) supplemented with 4.5 g/L Glucose with UltraGlutamine with sodium pyruvate (Lonza, Basel Stücki, Switzerland), enriched with 10% fetal bovine serum (FBS; Biowest, Nuaillé, France). The lung fibroblast MRC-5 cell line and the remaining NSCLC and colorectal cancer cell lines were cultured in Roswell Park Memorial Institute (RPMI) 1640 (with stable glutamine and 25 mM HEPES) medium (Biowest), supplemented with 10% fetal bovine serum. […] For the sulforhodamine B (SRB) and 3D cell culture assays, the media were supplemented with 5% FBS. The remaining experiments were performed with medium supplemented with 10% FBS.
(§8) Cells were seeded at a previously determined optimal cell concentration (5.0 × 10^4 cells/mL for NSCLC cells and the nontumorigenic MRC-5 cell line and 1.0 × 10^5 cells/mL for colorectal cancer cells) and incubated at 37 °C for 24 h. […] The SRB assay was performed as previously described.[78],[79] Briefly, after fixing cells with 10% (w/v) ice-cold trichloroacetic acid (Merck Life Science), the proteins were stained with 0.4% of SRB (Merck Life Science) in acetic acid (Merck Life Science). Following washing steps in acetic acid, the bound dye was solubilized with 10 mM Tris base solution (Merck Life Science). Absorbance was measured at 510 nm in a multiplate reader (Synergy Mx, Biotek Instruments Inc., Winooski, Vermont, USA) using the Gen5 software (Biotek Instruments Inc.).

NCI-H460 [3] = test: SRB cell growth inhibition assay; type: cell-based; conditions: Homo sapiens, 48 h, NSCLC sensitive, mean ± SEM
Description: as §6, §7, §8

OVCAR-3 = test: NCI60 five-dose GI50; type: cell-based; conditions: Homo sapiens, ovarian
Description: as §1, §2, §3, §4, §5

COLO-205 = test: NCI60 five-dose GI50; type: cell-based; conditions: Homo sapiens, colon
Description: as §1, §2, §3, §4, §5

MCF-7 = test: NCI60 five-dose GI50; type: cell-based; conditions: Homo sapiens, MCF7, breast
Description: as §1, §2, §3, §4, §5

UACC-62 = test: NCI60 five-dose GI50; type: cell-based; conditions: Homo sapiens, melanoma
Description: as §1, §2, §3, §4, §5

K-562 = test: NCI60 five-dose GI50; type: cell-based; conditions: Homo sapiens, K562, five dose; leukemia
Description: as §1, §2, §3, §4, §5

NCI-ADR/RES = test: NCI60 five-dose GI50; type: cell-based; conditions: Homo sapiens
Description: as §1, §2, §3, §4, §5

LOX-IMVI = test: NCI60 five-dose GI50; type: cell-based; conditions: Homo sapiens, melanoma
Description: as §1, §2, §3, §4, §5

[4] = Homo sapiens, five dose, across 57-60 cell lines (number given per compound), read-out: Mean of GI50 as Log 10 Concentration (SD) (converted)
[5] = five dose, mean over 52 human tumor cell lines common to all analogues, read-out: mean GI50

| GI50 (DLD1) | GI50 (NCI-H460 [3]) | SMILES | GI50 (NCI-H460 [1]) | fold more potent average GI50 than 1 ([2]; 2 versus 1) | GI50 (OVCAR-3) | GI50 (COLO-205) | GI50 (MCF-7) | GI50 (UACC-62) | GI50 (K-562) | GI50 (NCI-ADR/RES; MDR ovarian) | GI50 (LOX-IMVI) | GI50 [2, 4] | GI50 [2, 5] | GI50 (NCI-ADR/RES) | share of FDA approved anticancer agents outperformed in mean LC50 ([2]; comparison with ref 45) | share of FDA approved anticancer agents with higher mean GI50 ([2]; comparison with ref 45) | cell lines with ≤200 nM GI50 ([2]; five dose, number of cell lines out of 60) |
| --- | --- | --- | --- | --- | --- | --- | --- | --- | --- | --- | --- | --- | --- | --- | --- | --- | --- |
| 5940 ± 300 nM | 2700 ± 300 nM | COC(=O)c1c2c(c(C)[n+]([O-])c1C)C(=O)C(NCc1ccc(F)cc1)=CC2=O [Compound 4] | 792 nM | – | 319 nM | 376 nM | 1110 nM | 1250 nM | 2430 nM | 1680 nM | 1940 nM | 1410 nM | 1540 nM | – | – | – | – |
| 1220 ± 140 nM | 560 ± 200 nM | COC(=O)c1c2c(c(C)[n+]([O-])c1C)C(=O)C=C(NCc1ccc(F)cc1)C2=O [Compound 5] | 525 nM | – | 240 nM | 260 nM | 296 nM | 229 nM | 352 nM | 487 nM | 226 nM | 583 nM | 760 nM | – | – | – | – |
| 9670 ± 1150 nM | 6020 ± 340 nM | COC(=O)c1c2c(c(C)[n+]([O-])c1C)C(=O)C(NCc1ccc(O)cc1)=CC2=O [Compound 20] | 1580 nM | – | 266 nM | 579 nM | 416 nM | 1360 nM | 1630 nM | 2200 nM | 938 nM | 1310 nM | 1580 nM | – | – | – | – |
| – | 30 ± 10 nM | COc1cccc2c1C(=O)c1c(O)c3c(c(O)c1C2=O)C[C@@](O)(C(=O)CO)C[C@@H]3O[C@H]1C[C@H](N)[C@H](O)[C@H](C)O1 [doxorubicin, reference compound] | – | – | – | – | – | – | – | – | – | – | – | – | – | – | – |

Further lines, the compound ahead of its results:

| SMILES | GI50 (DLD1) | GI50 (NCI-H460 [3]) | GI50 (NCI-H460 [1]) | fold more potent average GI50 than 1 ([2]; 2 versus 1) | GI50 (OVCAR-3) | GI50 (COLO-205) | GI50 (MCF-7) | GI50 (UACC-62) | GI50 (K-562) | GI50 (NCI-ADR/RES; MDR ovarian) | GI50 (LOX-IMVI) | GI50 [2, 4] | GI50 [2, 5] | GI50 (NCI-ADR/RES) | share of FDA approved anticancer agents outperformed in mean LC50 ([2]; comparison with ref 45) | share of FDA approved anticancer agents with higher mean GI50 ([2]; comparison with ref 45) | cell lines with ≤200 nM GI50 ([2]; five dose, number of cell lines out of 60) |
| --- | --- | --- | --- | --- | --- | --- | --- | --- | --- | --- | --- | --- | --- | --- | --- | --- | --- |
| COC(=O)c1c2c(c(C)[n+]([O-])c1C)C(=O)C=C(NCc1ccccc1)C2=O [Compound 2] | 2330 ± 380 nM | 1430 ± 130 nM | 2740 nM | 2.8 fold | – | – | – | – | – | – | – | – | – | – | – | – | – |
| COC(=O)c1c2c(c[n+]([O-])c1C)C(=O)C=CC2=O [Compound 23] | 30200 ± 4080 nM | 38000 ± 8320 nM | 12800 nM | – | 320 nM | 1850 nM | 1650 nM | 1810 nM | 2510 nM | 3270 nM | 1960 nM | 2490 nM | 2150 nM | – | – | – | – |
| COC(=O)c1c2c(c[n+]([O-])c1C)C(=O)C(NCc1ccccc1)=CC2=O [Compound 24] | 1390 ± 170 nM | 750 ± 140 nM | 383 nM | – | 270 nM | 330 nM | 200 nM | 350 nM | 620 nM | 310 nM | 300 nM | 579 nM | 690 nM | – | – | – | – |
| COC(=O)c1c2c(c[n+]([O-])c1C)C(=O)C=C(NCc1ccccc1)C2=O [Compound 25] | 610 ± 110 nM | 350 ± 20 nM | 210 nM | – | 48 nM | 160 nM | 150 nM | 160 nM | 250 nM | 230 nM | 190 nM | 190 nM | 210 nM | 227 nM | 86% | 83% | 31/60 |
